Data on 27 compounds can be found in the Deep4Chem optical property database.

Where “and” joins values, the source holds several entries; their conditions need not be identical. Identical values can stand only once.

The nature of this data set: solvent given as SMILES.

Consider `O=c1c2cc(-n3c4ccccc4c4ccccc43)ccc2sc2ccc(-n3c4ccccc4c4ccccc43)cc12`, for which the emission maximum (in C1CCOC1) is 460 nm; the emission maximum (in CCCCCC) came to 438 nm; the emission maximum (in Cc1ccccc1) turned out to be 455.5 nm; the emission maximum (in ClC(Cl)Cl) is 493.5 nm; the emission maximum (in ClCCl) is reported as 495 nm.

Consider `CC1=[N+]2C(=C(c3ccccc3C)c3ccc(C)n3[B-]2(F)F)C=C1c1cc2n(c1)[B-](F)(F)[N+]1=CC=CC1=C2c1c(C)cc(C)cc1C`, for which the emission maximum runs as follows: (in C1CCCCC1) 640 nm; (in CCOC(C)=O) 679 nm.

`Cc1ccc(-c2ccc(-c3ccc(-c4ccc(-c5ccc(C)cc5)cc4)c(/C(=C(/c4ccccc4)c4cc(-c5ccc(-c6ccc(C)cc6)cc5)ccc4-c4ccc(-c5ccc(C)cc5)cc4)c4ccccc4)c3)cc2)cc1` gave an emission maximum (in C1CCOC1) of 498 nm.

Take `CC1=[N+]2C(=C(c3ccc(N4CCOCC4)cc3)c3ccc(C)n3[B-]2(F)F)C=C1`: the emission maximum was 520 nm (in C1CCCCC1); 695 nm and 528 nm (in C1CCOC1); 534 nm (in CC#N); 530 nm (in CC(=O)C(C)(C)C); 517 nm (in CC(C)=O); 520 nm (in CCCCCC). Further, the emission maximum by setting is: (in CCOC(C)=O) 520 nm; (in CO) 521 nm; (in Cc1ccccc1) 524 nm; (in ClC(Cl)Cl) 531 nm.

Consider `C(S/C=C/c1ccc(/C=C/SC=C2CCCCCC2)cc1)=C1CCCCCC1`, for which the emission maximum (in ClCCl) was found to be 422 nm.

Turning to `O=C(c1ccc(-n2c3ccccc3c3cc(-n4c5ccccc5c5ccccc54)ccc32)cc1)c1ccc(-n2c3ccccc3c3cc(-n4c5ccccc5c5ccccc54)ccc32)cn1`, the emission maximum came out at 462 nm (in Cc1ccccc1) and 475 nm (in O=P(c1ccccc1)(c1ccccc1)c1ccccc1Oc1ccccc1P(=O)(c1ccccc1)c1ccccc1).

For `COCc1ncc(-c2c3ccccc3c(-c3cnc(COC)nc3)c3ccccc23)cn1`, the emission maximum reads like this: (in CCO) 420 nm; (in ClCCl) 420 nm.

With `CC(C)[Si](C#Cc1c2nc3ccccc3nc2c(C#C[Si](C(C)C)(C(C)C)C(C)C)c2nc3c(ccc4cc5ccccc5cc43)nc12)(C(C)C)C(C)C`, the emission maximum (in CCCCCC) came to 648 nm.

For the compound `CC[N+]1(CC)CN2C(=N1)C(C(=O)O)=Cc1ccccc12`, the emission maximum is listed as 463 nm (in CN(C)C=O) and 462 nm (in O).

As for `CN1C(=O)/C(=C/c2ccncc2)N=C1c1ccccc1`, the emission maximum came out at 471 nm (in C1COCCO1); 475 nm (in CC#N); 477 nm (in CCO); 472 nm (in CCOC(C)=O); 477 nm (in O).

Turning to `COc1ccc(C2=[N+]3C(=Nc4c(C)cc(-c5ccc(OC)cc5)n4[B-]3(F)F)C(C)=C2)cc1`, the emission maximum (in CS(C)=O) was 692 nm.

Compound `CC(C)(C)c1ccc2oc3nc4oc5ccc(-n6c7ccc(C(C)(C)C)cc7c7cc(C(C)(C)C)ccc76)cc5c4cc3c2c1` gave an emission maximum (in ClC(Cl)Cl) of 444 nm.

In the case of `Brc1ccc(N/C=C/C=[NH+]c2ccc(Br)cc2)cc1`, the emission maximum (in CS(C)=O) worked out at 497 nm.

With `COc1ccc(C2=Cc3ccc4ccccc4[n+]3[B-](F)(F)O2)cc1`, the emission maximum (in ClC(Cl)Cl) was 457 nm.

Where the note is “in ClCCl”, `c1ccc(-c2ccc(-c3cc(-c4ccccn4)nc(-c4ccccn4)c3)cc2)cc1` showed an emission maximum of 360 nm.

Consider `CC1CC=C(c2ccc(-c3ccc(C#N)s3)s2)CC1` (stereo not drawn), for which the emission maximum runs as follows: (in C1CCOC1) 443 nm; (in CC#N) 448 nm; (in CCCCCC) 427 nm; (in CCO) 443 nm; (in OCCOCCO) 451 nm; (in c1ccncc1) 452 nm.

In turn, `COc1cc2c(cc1-c1ccc(F)cc1)Cc1c3c(c4c(c1-2)-c1cc(OC)c(-c2ccc(F)cc2)cc1C4)C(=O)N(CCC(C)C)C3=O` yielded an emission maximum (in C1CCOC1) of 468 nm.

Turning to `c1ccc2c(c1)CCc1ccccc1N2c1c2ccccc2c(N2c3ccccc3CCc3ccccc32)c2ccccc12`, the emission maximum (in Cc1ccccc1) is 525 nm.

Take `Cc1cscc1-c1cc2c3cc(-c4cscc4C)c4nc(C(F)(F)C(F)(F)C(F)(F)F)nc5c(-c6cscc6C)cc(c6cc(-c7cscc7C)c7nc(C(F)(F)C(F)(F)C(F)(F)F)nc1c7c26)c3c45`: the emission maximum (in C1CCOC1) is listed as 551 nm.

As to `CCNc1cc2oc(=O)c3c(=O)oc4ccccc4c3c2cc1C`, the emission maximum runs as follows: (in CS(C)=O) 552 nm; (in ClCCl) 509 nm.

In turn, `COC(=O)c1cc(=O)n(C)c2cc(-c3ccccc3N(C)C)sc12` displayed an emission maximum (in CC#N) of 484 nm and an emission maximum (in ClCCl) of 537 nm.

With `COc1ccc(C2=C3C=C(/C=C/C(=O)OC(C)(C)C)C=[N+]3[B-](F)(F)n3cccc32)cc1`, the emission maximum (in ClCCl) worked out at 572 nm.

`C/C=C/c1cc(OC)cc(OC)c1`: the emission maximum (in CC#N) amounted to 343 nm and the emission maximum (in CCCCCC) amounted to 338 nm.

In the case of `Clc1ccccc1-c1nc2sc3ccccc3c2s1`, the emission maximum (in CS(C)=O) is listed as 412 nm.

As for `O=C1/C(=C\c2ccc3oc4ccccc4c3c2)S(=O)(=O)c2ccccc21`, the emission maximum is, setting by setting: (in C1CCOC1) 437 nm; (in C1COCCO1) 436 nm; (in CC#N) 480 nm; (in CC(C)=O) 458 nm; (in CCOC(C)=O) 429 nm; (in CN(C)C=O) 445 nm. Besides, the emission maximum runs as follows: (in CO) 439 nm; (in CS(C)=O) 449 nm; (in Cc1ccccc1) 430 nm; (in ClC(Cl)Cl) 441 nm; (in ClCCl) 438 nm.

In turn, `CCCN1/C(=C/C=C(/C=C/c2sc3ccccc3[n+]2CCC)c2ccc([N+](=O)[O-])cc2)Sc2ccccc21` displayed an emission maximum (in CO) of 663 nm, an emission maximum (in CS(C)=O) of 673 nm and an emission maximum (in O) of 669 nm.

For the setting “in CN(C)C=O”, `Cc1ccc2[nH]c(-c3ccc(-c4ccc(-c5ccc(-c6nc7cc(C)ccc7[nH]6)cc5)c(F)c4)cc3)nc2c1` had an emission maximum of 423 nm.
